Measurements reported in patent EP4112728A1, “METHOD FOR I[…]-BINDING PEPTIDES” (ETH Zürich, priority 2021, dated 2023).

Assays:
[1] = tested on: other clinically relevant Gram negative and positive bacteria; assay: Minimal inhibitory concentration (MIC) against other strains; type: cell-based; settings: range over the strains tested (FIG.21)
cspA promoter = assay: Stress response assay, cold shock response (PcspA-gfp) indicating translation inhibition; type: cell-based, E. coli; settings: GFP under cspA promoter, relative to inactive control HNP-1; one sided t-test, adj. p<0.05
Text: Lastly, the inventors characterized the 50 most growth inhibitory (38 SIMILARS, 12 PARENTS) peptides using different assays (FIG.18). The inventors first used two biosensor constructs, containing the cspA and recA promoters, which upon activation are indicative of translation impairment and DNA damage, respectively. […] Next, the inventors measured membrane damage by quantifying propidium iodide (PI) uptake.
The inventors selected peptide-expressing strains of rank 1-50, previously generated for the monoseptic growth assay. […] Moreover, two plasmids (cloning vector: puA66) containing either the promoter of the gene for recombinase A (PrecA) or for the gene for cold shock protein A (PcspA) were purified from the E. coli Alon collection. Both plasmids contained a transcriptional fusion of their promoter with a downstream gene for green fluorescent protein (gfp), an additional kanamycin resistance cassette and a pSC101 origin of replication. […] The inventors recorded OD and GFP expression (λEx 488 nm/λEm 530nm) after 1.5 h and 4.5 h using a Tecan Infinite 200 PRO (37 °C, 1.5 mm orbital shaking). For each strain, the inventors calculated the specific fluorescence change between the two time points (GFP/OD (4.5 h) - GFP/OD (1.5 h)). Statistical significance was calculated by one sided t-tests, adjusted for multiple testing by Benjamini-Hochberg, using the signal of HNP-13425 APD

## GWFKKAWRKVKHAGRRVLDTAKGVGRHYLNNWLNRYR [ID 4545]
[1]
  MIC: 0.4 to 5.6 µM

## VDKGGYLPRPTPPRPVYR [ID 7122]
cspA promoter
  translational impairment: strongest indication for translational impairment
